Laboratory results as given in US8283009B2, “Use of a material based on a thermoplastic polymer having a high content of antioxidants for packaging dianhydrohexitols” (Roquette Freres, priority 2007, dated 2012).

Key:
[1] = Storage stability of isosorbide in sealed packaging sachets at 50° C., pH-metry; format: physicochemical
Description: 50 g of isosorbide in solid form (flakes) are introduced into a sachet (25 cm×25 cm) constituted of the packaging material to be tested. The sachet is immediately sealed by welding using an impulse heat sealer (model SZ 380 sold by Joisten & Kettenbaum GmbH & Co, Bergisch Gladbach, Germany). The thus sealed sachet is in turn introduced into a second sachet made of aluminum comprising a polyethylene coating, sealed by welding using the same heat sealer in order to ensure leaktightness with respect to the external atmosphere. The samples thus packaged are placed in a ventilated oven, thermostatted at a temperature of 50° C. A control sample is enclosed in a glass flask and stored under the same conditions.
After a given period, the whole of the sample of isosorbide is extracted from the packagings and dissolved to 40% by weight of solids in osmosed water. […]

[2] = Analysis for peroxides on the packaged product after storage; format: physicochemical; settings: packaged in accordance with the invention (PE + carbon black); 50° C.; after 4 months of storage

SMILES: O[C@@H]1CO[C@H]2[C@@H]1OC[C@@H]2O [isosorbide, 1,4:3,6-dianhydrosorbitol]
- drop in pH after storage ([1]; packaged in accordance with the invention (PE + carbon black), after 4 months of storage): no drop in pH
- pH of the solution ([1]; packaging PE + carbon black (according to the invention), storage 0 day, 40% by weight of solids in osmosed water): pH 7.6
- pH of the solution ([1]; packaging PE + carbon black (according to the invention), storage 1 month, 40% by weight in osmosed water): pH 7.3
- pH of the solution ([1]; packaging PE + carbon black (according to the invention), storage 1.5 month, 40% by weight in osmosed water): pH 7.4
- pH of the solution ([1]; packaging PE + carbon black (according to the invention), storage 2 months, 40% by weight in osmosed water): pH 7.5
- pH of the solution ([1]; packaging PE + carbon black (according to the invention), storage 2 weeks, 40% by weight in osmosed water): pH 7.2
- pH of the solution ([1]; packaging PE + carbon black (according to the invention), storage 2.5 months, 40% by weight in osmosed water): pH 7.5
- pH of the solution ([1]; packaging PE + carbon black (according to the invention), storage 3 months, 40% by weight in osmosed water): pH 7.6
- pH of the solution ([1]; packaging PE + carbon black (according to the invention), storage 4 months, 40% by weight in osmosed water): pH 7.7
- pH of the solution ([1]; packaging Sachet 1 (comp.) branched/linear polyethylene 50%/50%, storage 0 day, 40% by weight in osmosed water): pH 7.6
- pH of the solution ([1]; packaging Sachet 1 (comp.) branched/linear polyethylene 50%/50%, storage 1 month, 40% by weight in osmosed water): pH 7.4
- pH of the solution ([1]; packaging Sachet 1 (comp.) branched/linear polyethylene 50%/50%, storage 1.5 month, 40% by weight in osmosed water): pH 7.4
- pH of the solution ([1]; packaging Sachet 1 (comp.) branched/linear polyethylene 50%/50%, storage 2 weeks, 40% by weight in osmosed water): pH 7.5
- pH of the solution ([1]; packaging Sachet 2 (comp.) branched/linear polyethylene 70%/30%, storage 0 day, 40% by weight in osmosed water): pH 7.6
- pH of the solution ([1]; packaging Sachet 2 (comp.) branched/linear polyethylene 70%/30%, storage 2 weeks, 40% by weight in osmosed water): pH 7.5
- pH of the solution ([1]; packaging Sachet 3 (comp.) 100% of branched polyethylene, storage 0 day, 40% by weight in osmosed water): pH 7.6
- pH of the solution ([1]; packaging Sachet 4 (comp.) 100% of linear polyethylene, storage 0 day, 40% by weight in osmosed water): pH 7.6
- pH of the solution ([1]; packaging Sachet 4 (comp.) 100% of linear polyethylene, storage 2 weeks, 40% by weight in osmosed water): pH 7.2
- odor after storage ([1]; samples not packaged in accordance with the invention, glass 4 months, sachet 1 2 months, sachets 2 and 4 1 month, sachet 3 2 weeks): characteristic odor of formic acid
- presence of peroxides (markers of oxidation phenomena, instability) [2]: did not show any presence of peroxides
